{"source": "patent US20140155471A1", "about": "“TREATING NEUROLOGICAL DISEASE OR INJURY WITH A DYNAMIN-RELATED PROTEIN 1 (DRP1) ENCODING NUCLEIC ACID” (UNIVERSITY OF ROCHESTER, priority 2011, published 2014)", "key": {"[1]": {"tested_on": "MPTP mouse model of PD", "assay": "MPTP mouse model, neuroprotection (active neurodegeneration)", "format": "in vivo, C57BL/6 mice", "settings": "mdivi-1 delivered together with MPTP", "procedure": "For all studies, 10-12 week old male C57BL/6 mice were randomly assigned to receive intraperitoneal injections of either MPTP (25 mg/kg, Sigma, St. Louis, Mo.) or saline once daily for 5 days. For the neuroprotection studies, mice received twice daily i.p. injections (20 mg/kg) with mdivi-1 beginning on the day of the first MPTP injection and continued until mice were sacrificed 7 days after last MPTP injection. For the neurorescue studies, mice received twice daily i.p. injections (20 mg/kg) with mdivi-1 beginning 7 days after the last MPTP injection and continued for a total of 3 days. […]\n(§1) Brains from saline and MPTP treated mice were sectioned (30 μm) and processed for stereological cell counts using the optical fractionator method as described 35. Striatal optical densities of TH immunoreactivity were also quantified.\n(§2) A 12-channel CoulArray® (ESA Inc., Chelmsford, Mass.) equipped with a highly sensitive amperometric microbore cell (model 5041, ESA Inc.) was used to analyze the content of DA and its metabolites with the cell potential set at +220 mV as described in Cui et al. For measurements of total striatal DA content, mice were sacrificed and their striata were dissected out and stored at −80° C. until analysis. […] Peaks were detected by an ESA 8 Channel CoulArray® system. […]"}, "[2]": {"biological_target": "T1, mouse dopamine transporter (Mus musculus, UniProt Q61327)", "T1 construct": "expressed in transfected cells; host or cells: EM4 cells / HEK 293 cells stably transfected with macrophage scavenger receptor", "T1 sequence (Q61327 whole entry)": "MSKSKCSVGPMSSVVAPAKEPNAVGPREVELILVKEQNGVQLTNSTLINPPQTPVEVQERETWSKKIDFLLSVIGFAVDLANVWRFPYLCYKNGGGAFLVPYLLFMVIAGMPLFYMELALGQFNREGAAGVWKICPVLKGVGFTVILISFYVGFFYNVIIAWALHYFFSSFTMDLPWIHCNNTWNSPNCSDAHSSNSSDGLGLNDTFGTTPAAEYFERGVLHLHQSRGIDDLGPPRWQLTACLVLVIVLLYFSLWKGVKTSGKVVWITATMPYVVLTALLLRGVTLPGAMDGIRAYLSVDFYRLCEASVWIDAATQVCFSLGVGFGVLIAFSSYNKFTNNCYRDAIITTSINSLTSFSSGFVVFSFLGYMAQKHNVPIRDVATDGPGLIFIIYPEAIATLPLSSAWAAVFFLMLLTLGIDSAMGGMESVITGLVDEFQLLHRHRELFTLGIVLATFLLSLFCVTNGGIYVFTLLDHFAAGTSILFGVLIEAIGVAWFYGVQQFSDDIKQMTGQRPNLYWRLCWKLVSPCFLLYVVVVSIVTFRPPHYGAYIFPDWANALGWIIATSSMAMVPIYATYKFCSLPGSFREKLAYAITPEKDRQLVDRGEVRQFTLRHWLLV", "assay": "Transport studies in cells overexpressing dopamine transporter (MPP+ or DA uptake)", "format": "cell-based", "settings": "stable cells overexpressing DAT; substrates MPP+ or DA; mdivi-1 1 or 10 μM", "procedure": "EM4 cells and human embryonic kidney (HEK 293) cells stably transfected with macrophage scavenger to increase their adherence to tissue culture plastic, overexpressing mouse dopamine transporter or empty vector control were grown in 24-well plates. These cells were washed twice and then preincubated for 20 min at 37° C. in Krebs Ringer Hepes (KRH) buffer (125 mM NaCl, 25 mM HEPES, 5.6 mM glucose, 4.8 mM KCl, 1.2 mM KH2PO4, 1.2 mM CaCl2, 1.2 mM MgSO4, pH 7.4), in the presence or absence of mdivi-1 (1, or 10 μM) or GBR12909 (1 μM). This buffer was then replaced with KRH plus or minus MPP+ (200 μM) or dopamine (100 μM), in the presence or absence of mdivi-1 (1, or 10 μM) or GBR12909 (1 μM) for 30 min. To stop the reaction, cells were rinsed with ice-cold buffer and then immediately removed in 5% trichloroacetic acid, sonicated and centrifuged at 15,000 at 4° C. […]. Supernatant was collected for MPP+ and DA quantification using HPLC. Cell pellet was measured for protein concentration using the BCA assay."}, "[3]": {"tested_on": "MPTP mouse model of PD", "assay": "MPTP mouse model, neurorescue (treatment 7 days after last MPTP injection)", "format": "in vivo, C57BL/6 mice", "settings": "mdivi-1 i.p. twice daily for 3 days starting 7 days after last MPTP injection", "procedure": "For all studies, 10-12 week old male C57BL/6 mice were randomly assigned to receive intraperitoneal injections of either MPTP (25 mg/kg, Sigma, St. Louis, Mo.) or saline once daily for 5 days. For the neuroprotection studies, mice received twice daily i.p. injections (20 mg/kg) with mdivi-1 beginning on the day of the first MPTP injection and continued until mice were sacrificed 7 days after last MPTP injection. For the neurorescue studies, mice received twice daily i.p. injections (20 mg/kg) with mdivi-1 beginning 7 days after the last MPTP injection and continued for a total of 3 days. To maximize the data yielded from each animal, mice were sacrificed by decapitation and the freshly removed brains were divided into 3 pieces for separate measures of nigrostriatal damage. […]\nas §1\nStereotactic implantation of guide cannula was performed under ketamine/xylazine (65/6 mg/kg i.p.) anesthesia using the following striatal coordinates, relative to bregma: anterior-posterior +0.5 mm, lateral −2.0 mm, dorsal-ventral −1.5 mm (from surface of brain). […] Samples from the same animals were measured for the contents of mdivi-1, MPP+, DA, and its metabolites. […]"}, "[4]": {"assay": "In vivo microdialysis and HPLC of mdivi-1 in striatal dialysate (blood-brain barrier crossing)", "design": "species or system mice", "procedure": "Stereotactic implantation of guide cannula was performed under ketamine/xylazine (65/6 mg/kg i.p.) anesthesia using the following striatal coordinates, relative to bregma: anterior-posterior +0.5 mm, lateral −2.0 mm, dorsal-ventral −1.5 mm (from surface of brain). […] Samples from the same animals were measured for the contents of mdivi-1, MPP+, DA, and its metabolites. Levels of these molecules and the amount of KCl (delivered to the striatum) were calculated on the basis of the standard curves, probe efficiency (˜8%), flow rate, and duration of sample collection as described in Cui et al. “The organic cation transporter-3 is a pivotal modulator of neurodegeneration in the nigrostriatal dopaminergic pathway,” PNAS USA 106: 8043-8048 (2009).\nas §2\nThe ability of Mitochondrial Division Inhibitor-1 (mdivi-1), a Drp1 inhibitor, to cross the blood-brain barrier was assessed. […]"}, "[5]": {"tested_on": "Pink1-/- mice", "assay": "Depolarization (KCl)-evoked striatal DA overflow by in vivo microdialysis in Pink1-/- and Pink1+/+ mice", "settings": "mdivi-1 i.p. twice daily for 3 days", "method": "Stereotactic implantation of guide cannula was performed under ketamine/xylazine (65/6 mg/kg i.p.) anesthesia using the following striatal coordinates, relative to bregma: anterior-posterior +0.5 mm, lateral −2.0 mm, dorsal-ventral −1.5 mm (from surface of brain). Twenty-four hours after recovery from surgery, a microdialysis probe (2-mm membrane, Bioanalytical Systems, Inc., West Lafayette, Ind.) was inserted into the guide cannula and connected to a low torque-dual channel swivel (Instech Laboratories, Inc., Plymouth Meeting, Pa.) which was connected to a syringe pump perfusing with artificial cerebrospinal fluid (aCSF) at 2 μL/min for all studies except mdivi-1 pharmacokinetic studies where the flow rate was 1 μL/min. […] Samples from the same animals were measured for the contents of mdivi-1, MPP+, DA, and its metabolites."}}, "data": [{"smiles": "COc1cc(-n2c(S)nc3ccccc3c2=O)c(Cl)cc1Cl", "note": "[mdivi-1, 3-(2,4-dichloro-5-methoxyphenyl)-2-sulfanyl-4(3H)-quinazolinone]", "values": [{"measurement": "MPTP induced-loss of dopaminergic cell body terminals and DA content", "setting": "[1]", "result": "significantly prevented"}, {"measurement": "transport activity of DAT", "setting": "[2]", "result": "did not affect"}, {"measurement": "evoked DA overflow in MPTP-lesioned mice", "setting": "[3]", "result": "improved"}, {"measurement": "regeneration of nigral DA neurons terminals or total DA content", "setting": "[3]", "result": "absence of promoting regeneration"}, {"measurement": "time of peak of mdivi-1 in striatal dialysate", "setting": "[4]; after an i.p. injection", "result": 3, "unit": "h"}, {"measurement": "mdivi-1 in the striatal dialysate (ability to cross the blood-brain barrier)", "setting": "[4]; after i.p. injection, in vivo microdialysis, HPLC", "result": "detected"}, {"measurement": "evoked DA overflow in Pink1-/- mice", "setting": "[5]; 12 month old Pink1-/- mice, high-KCl aCSF", "result": "complete restoration"}, {"measurement": "level of evoked DA release in Pink1+/+ mice", "setting": "[5]; Pink1+/+ mice", "result": "did not alter"}]}]}
